Source: patent US20240279221A1, “HETEROCYCLIC COMPOUNDS AND METHODS OF USE” (Schrödinger, Inc., priority 2021, published 2024)
pIC50, pKd: −log10 of the molar value.

Columns and labels:
[1] = target: SOS1:KRAS (G12C) interaction (Homo sapiens (Human), UniProt Q07889); test: SOS1-KRas(G12C) FRET Assay; assay type: binding; details: 0.5 nM His10-SOS1 (res. 564-1049), 2.5 nM GST-KRAS (res. 1-169, G12C); read-out: SOS-KRas(G12C) FRET IC50
Procedure, shortened: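 Compounds were pre-incubated 15 min at 25° C with SOS1 (His10, res. 564-1049; 0.5 nM final) and anti-6His-XL665, then GST-KRAS G12C (res. 1-169; 2.5 nM final) with anti-GST-Eu(K) was added for 2 h at RT. The buffer was PBS, 0.1% BSA, 5 mM MgCl2, 100 mM KF, 5 mM DTT with 0.5% DMSO. The 665/615 nm signal was normalised to DMSO and no-SOS1 controls, and IC50 and Hill coefficient were fitted by non-linear regression.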

human SOS1 = human SOS1 (Homo sapiens (Human), UniProt Q07889); test: Surface Plasmon Resonance (SPR) SOS1 Binding Assay; details: biotinylated SOS1 (res. 564-1049), 25° C., kinetic or steady state fit, read-out: KD for hSOS1
Method: Binding to SOS1 was measured using a SPR assay with purified recombinant human SOS1 substrate (res. 564-1049 with N-terminal Avi tag; purified and biotinylated based on Hillig, et al., Proc Natl Acad Sci USA (2019); 116(7):2551-2560). SPR measurements were performed on a Biacore 8K SPR instrument (GE Healthcare, Sweden). Assays were performed at 25° C. using Series S SA sensor chips pre-coated with streptavidin (GE Healthcare, Cat. BR100531). Biotinylated SOS1 diluted in sample buffer (20 mM Tris HCl, 150 mM NaCl, 1 mM DTT, 0.05% TWEEN 20, 1 mM MgCl2, pH 8.0) was captured to one flow cell of the chip to about 3,000 resonance units (RU) using sample buffer supplemented with 5% DMSO as a running buffer. Serial dilutions of the assayed compounds in the running buffer at 100, 50 or 0.5 μM were injected for 60 s at a flow rate of 30 μL/min and association phases were recorded. Dissociation of the samples was monitored for 600 s. Data processing was performed using Biacore Insight Software (Biacore, GE Healthcare). Sensorgrams recorded on a SA flow cell without captured protein were subtracted from sensorgrams recorded on the SOS1 surface. Blank injections of running buffer were used for double referencing and solvent correction was applied to all sample sensorgrams to correct for buffer mismatches. KDs were estimated using a kinetic or steady state, where applicable, fitting model describing a reversible equilibrium with 1:1 binding between SOS1 and the compound.

SOS1:KRAS (G12C) interaction, sequence (Q07889 564-1049, stated change not applied): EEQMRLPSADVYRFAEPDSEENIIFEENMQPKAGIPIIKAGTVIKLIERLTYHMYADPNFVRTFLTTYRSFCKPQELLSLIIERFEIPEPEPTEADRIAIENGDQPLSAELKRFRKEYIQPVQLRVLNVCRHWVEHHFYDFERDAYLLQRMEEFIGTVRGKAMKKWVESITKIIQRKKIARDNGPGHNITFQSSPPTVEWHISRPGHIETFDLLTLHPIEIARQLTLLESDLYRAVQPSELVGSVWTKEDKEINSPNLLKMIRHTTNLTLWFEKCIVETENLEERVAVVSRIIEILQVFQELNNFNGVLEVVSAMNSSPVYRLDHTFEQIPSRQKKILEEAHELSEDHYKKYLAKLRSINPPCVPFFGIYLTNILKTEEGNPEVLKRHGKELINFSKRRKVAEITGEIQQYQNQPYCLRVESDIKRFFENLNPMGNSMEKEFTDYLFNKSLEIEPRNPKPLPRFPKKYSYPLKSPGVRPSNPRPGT
human SOS1, sequence (Q07889 564-1049): as the sequence (Q07889 564-1049, stated change not applied) above

SMILES | pIC50 [1] | pKd (human SOS1)
C[C@@H](Nc1nn(C)c(=O)c2cc(=O)n(C3CC3)cc12)c1ccc2c(C#N)nn(C)c2c1 (single isomer, unassigned) [Example 25] | 5.41 | 6.65
C[C@H](Nc1nn(C)c(=O)c2cc(=O)n(C3CC3)cc12)c1ccc2c(C#N)nn(C)c2c1 (single isomer, unassigned) [Example 26] | 4.00 | < 4.30
Cc1cc([C@@H](C)Nc2nn(C)c(=O)c3cc(=O)n(C4CC4)cc23)cc2c1c(C#N)nn2C (single isomer, unassigned) [Example 27] | 5.82 | 6.87
Cc1cc([C@H](C)Nc2nn(C)c(=O)c3cc(=O)n(C4CC4)cc23)cc2c1c(C#N)nn2C (single isomer, unassigned) [Example 28] | 4.12 | 5.52
C[C@@H](Nc1nn(C)c(=O)c2cc(=O)n([C@H]3CCOC[C@@H]3F)cc12)c1cccc(C(F)F)c1F (single isomer, unassigned) [Example 30] | 7.68 | 8.05
C[C@@H](Nc1nn(C)c(=O)c2cc(=O)n([C@@H]3CCOC[C@H]3F)cc12)c1cccc(C(F)F)c1F (single isomer, unassigned) [Example 31] | 6.84 | 7.35
C[C@@H](Nc1nn(C)c(=O)c2cc(=O)n([C@@H]3CCOC[C@@H]3F)cc12)c1cccc(C(F)F)c1F (single isomer, unassigned) [Example 32] | 5.98 | 6.64
C[C@@H](Nc1nn(C)c(=O)c2cc(=O)n([C@H]3CCOC[C@H]3F)cc12)c1cccc(C(F)F)c1F (single isomer, unassigned) [Example 33] | 7.50 | 8.10
Cc1c([C@@H](C)Nc2nn(C)c(=O)c3c([C@@H]4CCCN4)c(=O)n(C4CC4)cc23)cccc1C(F)(F)F (single isomer, unassigned) [Example 34] | 7.36 | 8.00
C[C@@H](Nc1nn(C)c(=O)c2cc(=O)n([C@H]3CCCOC3)cc12)c1cccc(C(F)F)c1F (single isomer, unassigned) [Example 38] | 6.68 | 7.37
C[C@@H](Nc1nn(C)c(=O)c2cc(=O)n([C@@H]3CCCOC3)cc12)c1cccc(C(F)F)c1F (single isomer, unassigned) [Example 39] | 6.80 | 7.37
C[C@H](Nc1nn(C)c(=O)c2cc(=O)n(C3CCOCC3)cc12)c1cccc(C(F)(F)[C@@H]2CCCO2)c1F (single isomer, unassigned) [Example 44] | 5.24 | < 5.30
C[C@@H](Nc1nn(C)c(=O)c2cc(=O)n(C34CC(C(F)(F)F)(C3)C4)cc12)c1cccc(C(F)F)c1F [Example 155, (R)-4-((1-(3-(difluoromethyl)-2-fluorophenyl)ethyl)amino)-2-methyl-6-(3-(trifluoromethyl)bicyclo[1.1.1]pentan-1-yl)pyrido[3,4-d]pyridazine-1,7(2H,6H)-dione] | 6.80 | –
C[C@@H](Nc1nn(C)c(=O)c2cc(=O)n(C3(C(F)(F)F)COC3)cc12)c1cccc(C(F)F)c1F [Example 156, (R)-4-((1-(3-(difluoromethyl)-2-fluorophenyl)ethyl)amino)-2-methyl-6-(3-(trifluoromethyl)oxetan-3-yl)-2,6-dihydropyrido[3,4-d]pyridazine-1,7-dione] | 7.18 | –
CC(Nc1nn(C)c(=O)c2cc(=O)n(C3CC3)cc12)c1cc(F)cc(C(F)(F)F)c1 (stereo not shown) [Example 159, 6-cyclopropyl-4-((1-(3-fluoro-5-(trifluoromethyl)phenyl)ethyl)amino)-2-methylpyrido[3,4-d]pyridazine-1,7(2H,6H)-dione] | 5.46 | –
C[C@@H](Nc1nn(C)c(=O)c2cc(=O)n(C3(C(F)F)CC3)cc12)c1cccc2c1OCC2(F)F [Example 160, (R)-4-((1-(3,3-difluoro-2,3-dihydrobenzofuran-7-yl)ethyl)amino)-6-(1-(difluoromethyl)cyclopropyl)-2-methyl-2,6-dihydropyrido[3,4-d]pyridazine-1,7-dione] | 7.44 | –
COCC(F)(F)c1cccc([C@@H](C)Nc2nn(C)c(=O)c3cc(=O)n(C4(C(F)F)CC4)cc23)c1F [Example 161, 4-[[(1R)-1-[3-(1,1-difluoro-2-methoxy-ethyl)-2-fluoro-phenyl]ethyl]amino]-6-[1-(difluoromethyl)cyclopropyl]-2-methyl-pyrido[3,4-d]pyridazine-1,7-dione] | 7.60 | –
COCC(F)(F)c1cccc([C@H](C)Nc2nn(C)c(=O)c3cc(=O)n(C4(C(F)F)CC4)cc23)c1F [Example 162, 4-[[(1S)-1-[3-(1,1-difluoro-2-methoxy-ethyl)-2-fluoro-phenyl]ethyl]amino]-6-[1-(difluoromethyl)cyclopropyl]-2-methyl-pyrido[3,4-d]pyridazine-1,7-dione] | < 5.00 | –
C[C@@H](Nc1nn(C)c(=O)c2cc(=O)n(C3(C(F)F)CC3)cc12)c1cccc2c(F)coc12 [Example 163, (R)-6-(1-(difluoromethyl)cyclopropyl)-4-((1-(3-fluorobenzofuran-7-yl)ethyl)amino)-2-methyl-2,6-dihydropyrido[3,4-d]pyridazine-1,7-dione] | 7.12 | –
C[C@@H](Nc1nn(C)c(=O)c2cc(=O)n(C3(C(F)F)CC3)cc12)c1cccc(C(F)(F)c2ccncc2)c1F [Example 174, (R)-4-((1-(3-(difluoro(pyridin-4-yl)methyl)-2-fluorophenyl)ethyl)amino)-6-(1-(difluoromethyl)cyclopropyl)-2-methyl-2,6-dihydropyrido[3,4-d]pyridazine-1,7-dione] | 8.36 | –
C[C@H](Nc1nn(C)c(=O)c2cc(=O)n(C3(C(F)F)CC3)cc12)c1cccc(C(F)(F)c2ccncc2)c1F [Example 175, (S)-4-((1-(3-(difluoro(pyridin-4-yl)methyl)-2-fluorophenyl)ethyl)amino)-6-(1-(difluoromethyl)cyclopropyl)-2-methyl-2,6-dihydropyrido[3,4-d]pyridazine-1,7-dione] | 5.35 | –
Cc1cnc(C(F)(F)c2cccc([C@@H](C)Nc3nn(C)c(=O)c4cc(=O)n(C5(C(F)F)CC5)cc34)c2F)cn1 [Example 176, (R)-4-((1-(3-(difluoro(5-methylpyrazin-2-yl)methyl)-2-fluorophenyl)ethyl)amino)-6-(1-(difluoromethyl)cyclopropyl)-2-methyl-2,6-dihydropyrido[3,4-d]pyridazine-1,7-dione] | 7.70 | –
Cc1cnc(C(F)(F)c2cccc([C@H](C)Nc3nn(C)c(=O)c4cc(=O)n(C5(C(F)F)CC5)cc34)c2F)cn1 [Example 177, (S)-4-((1-(3-(difluoro(5-methylpyrazin-2-yl)methyl)-2-fluorophenyl)ethyl)amino)-6-(1-(difluoromethyl)cyclopropyl)-2-methyl-2,6-dihydropyrido[3,4-d]pyridazine-1,7-dione] | < 5.00 | –
C[C@@H](Nc1nn(C)c(=O)c2cc(=O)n(C34COC(CF)(C3)C4)cc12)c1cccc(C(F)F)c1F [Example 178, (R)-4-((1-(3-(difluoromethyl)-2-fluorophenyl)ethyl)amino)-6-(1-(fluoromethyl)-2-oxabicyclo[2.1.1]hexan-4-yl)-2-methyl-2,6-dihydropyrido[3,4-d]pyridazine-1,7-dione] | 7.12 | –
C[C@@H](Nc1nn(C)c(=O)c2cc(=O)n(C34COC(C)(C3)C4)cc12)c1cccc(C(F)F)c1F [Example 179, (R)-4-((1-(3-(difluoromethyl)-2-fluorophenyl)ethyl)amino)-2-methyl-6-(1-methyl-2-oxabicyclo[2.1.1]hexan-4-yl)-2,6-dihydropyrido[3,4-d]pyridazine-1,7-dione] | 7.16 | –
C[C@@H](Nc1nn(C)c(=O)c2cc(=O)n(C3(C(F)F)CC3)cc12)c1cccc2c1OCCC2(F)F [Example 180, (R)-4-((1-(4,4-difluorochroman-8-yl)ethyl)amino)-6-(1-(difluoromethyl)cyclopropyl)-2-methyl-2,6-dihydropyrido[3,4-d]pyridazine-1,7-dione] | 6.75 | –
C[C@H](Nc1nn(C)c(=O)c2cc(=O)n(C3(C(F)F)CC3)cc12)c1cccc2c1OCCC2(F)F [Example 181, (S)-4-((1-(4,4-difluorochroman-8-yl)ethyl)amino)-6-(1-(difluoromethyl)cyclopropyl)-2-methyl-2,6-dihydropyrido[3,4-d]pyridazine-1,7-dione] | < 5.00 | –
C[C@@H](Nc1nn(C)c(=O)c2cc(=O)n(C3CC3)cc12)c1ccc2ccccc2c1 [Example 182, (R)-6-cyclopropyl-2-methyl-4-((1-(naphthalen-2-yl)ethyl)amino)-2,6-dihydropyrido[3,4-d]pyridazine-1,7-dione] | 5.61 | –
